Values of other authors as cited in patent US20250241996A1, “COMBINATORIAL, AND ROTATIONAL COMBINATORIAL THERAPIES” (Starrock Pharma Inc., priority 2022, published 2025).
Like-named read-outs stand apart in the source and are kept apart here.

How the values were obtained:
[1] = Model: in vitro; cited from earlier work
[2] = oral administration; mice; cited from earlier work
[3] = intravenous; 18 obese patients; cited from earlier work
[4] = injections, 4-week study; saline 0.5±0.5 kg; cited from earlier work
[5] = cited from earlier work; for average weight reduction (efficacy estimate): placebo 2.4%; for treatment discontinuation rate due to adverse events: placebo 2.6%; for overall treatment discontinuation rate: placebo 26.4%; for people achieving at least 5% body weight reductions: placebo 28%; for Body weight change from baseline / Estimated mean weight change / Patients with weight loss of >5% / Patients with weight loss of >20%: week 72
[6] = cited from earlier work
[7] = two hours after infusion, P<0.001, cited from earlier work
[8] = cited from earlier work; remark: listed apart in the source

O=C1CCC(N2C(=O)c3ccccc3C2=O)C(=O)N1 (stereo not drawn) [Thalidomide]
Results [1]: decrease TNF-α from Aβ42-

enterostatin
serum cholesterol [2]: reduce serum cholesterol after oral administration in mice | feelings of hunger, satiety, or food preference [3]: did not impact feelings of hunger, satiety, or food preference

oxyntomodulin: 37-amino acid peptide hormone (SEQ ID NO:4) (HSQGTFTSDYSKYLDSRRAQDFVQWLMNTKRNRNNIA; Oxyntomodulin (OXY/OXM 53-89); listed as Homo sapiens)
average weight loss [4]: 2.3 ± 0.4 kg

tirzepatide
average weight reduction (efficacy estimate) ([5]; 5 mg): 16.0% | treatment discontinuation rate due to adverse events ([5]; 5 mg): 4.3% | overall treatment discontinuation rate ([5]; 5 mg): 14.3% | people achieving at least 5% body weight reductions ([5]; 5 mg): 89% | average weight reduction (efficacy estimate) ([5]; 10 mg): 21.4% | treatment discontinuation rate due to adverse events ([5]; 10 mg): 7.1% | overall treatment discontinuation rate ([5]; 10 mg): 16.4% | people achieving at least 5% body weight reductions ([5]; 10 mg): 96% | average weight reduction (efficacy estimate) ([5]; 15 mg): 22.5% | treatment discontinuation rate due to adverse events ([5]; 15 mg): 6.2% | overall treatment discontinuation rate ([5]; 15 mg): 15.1% | people achieving at least 5% body weight reductions ([5]; 15 mg): 96% | body weight lost (up to) ([5]; 5, 10, 15 mg, 72 weeks): ≤ 52 lb. | Body weight change from baseline ([5]; SC 5 mg): -16 kg | Estimated mean weight change ([5]; SC 5 mg): −15% | Patients with weight loss of >5% ([5]; SC 5 mg): 85% | Patients with weight loss of >20% ([5]; SC 5 mg): 30% | Body weight change from baseline ([5]; SC 10 mg): -22 kg | Estimated mean weight change ([5]; SC 10 mg): −19.5% | Patients with weight loss of >5% ([5]; SC 10 mg): 89% | Patients with weight loss of >20% ([5]; SC 10 mg): 50% | Body weight change from baseline ([5]; SC 15 mg): -24 kg | Estimated mean weight change ([5]; SC 15 mg): −20.9% | Patients with weight loss of >5% ([5]; SC 15 mg): 91% | Patients with weight loss of >20% ([5]; SC 15 mg): 57% | trial participants experiencing abdominal pain ([5]; in vivo): 5% | trial participants experiencing constipation ([5]; in vivo): 7% | trial participants experiencing diarrhea ([5]; in vivo): 17% | trial participants experiencing nausea ([5]; in vivo): 18% | trial participants experiencing vomiting ([5]; in vivo): 9% | long-term blood sugar control (A1C) and weight loss compared to semaglutide ([6]; human, in vivo): significantly better long-term blood sugar control (i.e., A1C) and weight loss compared to semaglutide | body weight reduction ([6]; phase III, type 2 diabetes, semaglutide comparator at 1 mg): > 15%

B1: PYY: 36-amino acid peptide released from cells in the ileum and colon (peptide, listed as Homo sapiens)
chain: MVFVRRPWPALTTVLLALLVCLGALVDAYPIKPEAPREDASPEELNRYYASLRHYLNLVTRQRYGKRDGPDTLLSKTFFPDGEDRPVRSRSEGPDLW
modifications: Peptide tyrosine-tyrosine (PYY)
notes: 36-amino acid peptide released from cells in the ileum and colon
decrease of caloric intake during a buffet lunch ([7]; lean subjects): 31% | decrease of caloric intake during a buffet lunch ([7]; obese subjects): 30%

B2: adiponectin: 244-amino-acid-long polypeptide (SEQ ID NO:2) (protein, listed as Homo sapiens)
chain: MLLLGAVLLLLALPGHDQETTTQGPGVLLPLPKGACTGWMAGIPGHPGHNGAPGRDGRDGTPGEKGEKGDPGLIGPKGDIGETGVPGAEGPRGFPGIQGRKGEPGEGAYVYRSAFSVGLETYVTIPNMPIRFTKIFYNQQNHYDGSTGKFHCNIPGLYYFAYHITVYMKDVKVSLFKKDKAMLFTYDQYQENNVDQASGSVLLHLEVGDQVWLQVYGEGERNGLYADNDNDSTFTGFLLYHDTN
modifications: Adiponectin
half-life [8]: 2.5 h
